The values below come from patent US10562908B2, “Ortho substituted phenylpyrazolo- and phenylpyrrolo-pyridazine derivatives having multimodal activity against pain” (priority 2016, dated 2020).

Each structure is given as a SMILES string. Where two headings read alike, the source gives them in different places. Some results are limits rather than exact numbers.

In general, Ki refers to the equilibrium dissociation constant of an inhibitor or competing ligand from its target.

Test [1] concerns the target T1, human μ-opioid receptor (Homo sapiens, UniProt P35372).
T1 construct: expressed in transfected cells; host or cells: CHO-K1
The experiment in a line: Human μ-opioid receptor radioligand assay ([3H]-DAMGO). The class given is binding. In outline:
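Transfected CHO-K1 membranes (20 μg) incubated with 1 nM [3H]-DAMGO in 50 mM Tris-HCl, 5 mM MgCl2, pH 7.4, 60 min at 27 °C; non-specific binding with 10 μM naloxone. Test compound at five concentrations; bound radioactivity counted after filtration by scintillation.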

In test [2] the target is Human α2δ-1 subunit of Cav2.2 calcium channel (Homo sapiens, UniProt P54289). The experiment in a line: Human α2δ-1 subunit of Cav2.2 calcium channel assay ([3H]-Gabapentin). The class given is binding. In outline: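 α2δ-1-enriched membranes (2.5 μg) were incubated with 15 nM [3H]-gabapentin in 10 mM Hepes-KOH pH 7.4 for 60 min at 27 °C. Non-specific binding was defined with 10 μM pregabalin. Compounds were tested at five concentrations, with filtration and scintillation counting.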
Chain of Human α2δ-1 subunit of Cav2.2 calcium channel (P54289 25-1103): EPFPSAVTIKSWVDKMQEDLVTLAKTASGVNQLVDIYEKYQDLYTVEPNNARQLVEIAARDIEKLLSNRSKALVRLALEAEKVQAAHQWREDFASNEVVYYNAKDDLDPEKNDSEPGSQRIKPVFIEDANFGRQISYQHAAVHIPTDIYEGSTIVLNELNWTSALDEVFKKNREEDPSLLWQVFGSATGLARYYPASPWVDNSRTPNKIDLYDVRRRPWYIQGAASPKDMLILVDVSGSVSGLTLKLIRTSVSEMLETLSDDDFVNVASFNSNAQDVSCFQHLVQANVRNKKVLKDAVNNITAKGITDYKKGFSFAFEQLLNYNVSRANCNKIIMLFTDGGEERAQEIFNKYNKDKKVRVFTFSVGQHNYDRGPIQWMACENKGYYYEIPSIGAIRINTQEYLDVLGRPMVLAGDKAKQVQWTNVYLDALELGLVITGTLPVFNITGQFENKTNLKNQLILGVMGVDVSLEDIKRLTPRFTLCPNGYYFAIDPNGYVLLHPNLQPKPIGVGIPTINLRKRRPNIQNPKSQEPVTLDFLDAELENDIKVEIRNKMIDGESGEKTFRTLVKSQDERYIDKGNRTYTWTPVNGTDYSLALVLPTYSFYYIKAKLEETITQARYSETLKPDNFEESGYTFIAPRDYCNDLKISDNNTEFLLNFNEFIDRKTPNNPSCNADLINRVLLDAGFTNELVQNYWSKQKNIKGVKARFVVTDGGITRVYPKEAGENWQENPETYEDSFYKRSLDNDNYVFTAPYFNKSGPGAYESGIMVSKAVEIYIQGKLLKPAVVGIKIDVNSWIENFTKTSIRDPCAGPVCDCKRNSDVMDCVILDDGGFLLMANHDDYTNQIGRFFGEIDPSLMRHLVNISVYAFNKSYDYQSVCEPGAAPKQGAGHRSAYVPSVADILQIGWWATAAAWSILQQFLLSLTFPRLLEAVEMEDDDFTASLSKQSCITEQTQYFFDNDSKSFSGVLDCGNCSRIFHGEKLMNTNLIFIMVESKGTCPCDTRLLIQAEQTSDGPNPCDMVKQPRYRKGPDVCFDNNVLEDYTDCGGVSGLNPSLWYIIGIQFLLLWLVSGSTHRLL

The mark [3] stands for this setting: transfected CHO-K1 cell membranes, 1 nM [3H]-DAMGO, read-out: Binding μ (Ki).
Where [4] appears, read: human α2δ-1 enriched membranes, 15 nM [3H]-Gabapentin, read-out: Binding α2δ-1 (Ki).

T1 sequence (P35372 whole entry): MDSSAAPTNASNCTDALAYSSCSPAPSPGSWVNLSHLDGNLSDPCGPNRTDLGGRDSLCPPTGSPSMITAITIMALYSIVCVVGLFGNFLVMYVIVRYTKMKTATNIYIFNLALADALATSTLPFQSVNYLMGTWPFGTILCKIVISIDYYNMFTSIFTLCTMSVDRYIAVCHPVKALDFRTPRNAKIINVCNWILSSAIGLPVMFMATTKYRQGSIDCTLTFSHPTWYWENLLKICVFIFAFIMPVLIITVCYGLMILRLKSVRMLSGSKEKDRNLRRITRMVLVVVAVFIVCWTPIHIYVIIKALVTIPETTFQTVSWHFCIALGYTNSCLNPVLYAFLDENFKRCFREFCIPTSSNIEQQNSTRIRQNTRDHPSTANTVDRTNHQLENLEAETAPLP

Consider `CNCCC(Oc1ccccc1-n1cc2cnnc(N(C)C)c2n1)c1ccccc1` (stereo not drawn) [Example 71, N,N-dimethyl-2-(2-(3-(methylamino)-1-phenylpropoxy)phenyl)-2H-pyrazolo[3,4-d]pyridazin-7-amine], for which the Ki in test [1] (setting [3]) was over 500 nM; in test [2] (setting [4]), 500 to 5000 nM.

With `CNCc1ccccc1COc1ccccc1-n1nc2c(N(C)C)nnc(C)c2c1C` [Example 72, N,N,3,4-Tetramethyl-2-(2-((2-((methylamino)methyl)benzyl)oxy)phenyl)-2H-pyrazolo[3,4-d]pyridazin-7-amine], the figures for the Ki in test [1] (setting [3]) and in test [2] (setting [4]) were over 500 nM and 500 to 5000 nM, respectively.

Regarding `Cc1nnc(N(C)C)c2nn(-c3ccccc3OC(CCNCCF)c3ccccc3)c(C)c12` (stereo not drawn) [Example 73, 2-(2-(3-((2-Fluoroethyl)amino)-1-phenylpropoxy)phenyl)-N,N,3,4-tetramethyl-2H-pyrazolo[3,4-d]pyridazin-7-amine], the values for the inhibition constant Ki in test [1] and in test [2] were under 100 nM and 500 to 5000 nM, respectively.

As for `Cc1nnc(N(C)C)c2nn(-c3ccccc3OC(Cc3ccccc3)CN(C)Cc3ccccc3)c(C)c12` (stereo not drawn) [Example 74, 2-(2-((1-(Benzyl(methyl)amino)-3-phenylpropan-2-yl)oxy)phenyl)-N,N,3,4-tetramethyl-2H-pyrazolo[3,4-d]pyridazin-7-amine], the inhibition constant (Ki) is over 500 nM in test [1] (setting [3]) and over 5000 nM in test [2] (setting [4]).

For the compound `Cc1nnc(N(C)C)c2nn(-c3ccccc3OC(CCN(C)Cc3ccccc3)Cc3ccccc3)c(C)c12` (stereo not drawn) [Example 75, 2-(2-((4-(benzyl(methyl)amino)-1-phenylbutan-2-yl)oxy)phenyl)-N,N,3,4-tetramethyl-2H-pyrazolo[3,4-d]pyridazin-7-amine], the Ki was over 500 nM in test [1] (setting [3]) and over 5000 nM in test [2] (setting [4]).

Regarding `CNCC(Cc1ccccc1)Oc1ccccc1-n1nc2c(N(C)C)nnc(C)c2c1C` (stereo not drawn) [Example 76, N,N,3,4-Tetramethyl-2-(2-((1-(methylamino)-3-phenylpropan-2-yl)oxy)phenyl)-2H-pyrazolo[3,4-d]pyridazin-7-amine], the figures for the Ki in test [1] (setting [3]) and in test [2] (setting [4]) were over 500 nM and 500 to 5000 nM, respectively.

Regarding `CNCCC(Cc1ccccc1)Oc1ccccc1-n1nc2c(N(C)C)nnc(C)c2c1C` (stereo not drawn) [Example 77, N,N,3,4-tetramethyl-2-(2-((4-(methylamino)-1-phenylbutan-2-yl)oxy)phenyl)-2H-pyrazolo[3,4-d]pyridazin-7-amine], the Ki in test [1] (setting [3]) was over 500 nM; in test [2] (setting [4]) it was 500 to 5000 nM.

In the case of `CNCCC(Oc1ccccc1-n1nc2c(N(C)C)nnc(C)c2c1C)c1cccs1` (stereo not drawn) [Example 78, N,N,3,4-Tetramethyl-2-(2-(3-(methylamino)-1-(thiophen-2-yl)propoxy)phenyl)-2H-pyrazolo[3,4-d]pyridazin-7-amine], the Ki in test [1] lay within 100 to 500 nM; in test [2] it was 500 to 5000 nM.

In the case of `CNCCC(Oc1ccccc1-n1nc2c(N(C)C)nnc(C)c2c1C)c1cccc(O)c1` (stereo not drawn) [Example 79, 3-(1-(2-(7-(Dimethylamino)-3,4-dimethyl-2H-pyrazolo[3,4-d]pyridazin-2-yl)phenoxy)-3-(methylamino)propyl)phenol], the Ki in test [1] lay within 100 to 500 nM; in test [2], 500 to 5000 nM.

As for `CNCCC(Oc1cc(N2CCCC2=O)ccc1-n1nc2c(N(C)C)nnc(C)c2c1C)c1ccccc1` (stereo not drawn) [Example 80, 1-(4-(7-(Dimethylamino)-3,4-dimethyl-2H-pyrazolo[3,4-d]pyridazin-2-yl)-3-(3-(methylamino)-1-phenylpropoxy)phenyl)pyrrolidin-2-one], the figures for the Ki in test [1] (setting [3]) and in test [2] (setting [4]) were over 500 nM and 500 to 5000 nM, respectively.

For `CNCCC(Oc1ccc(N2CCCC2=O)cc1-n1nc2c(N(C)C)nnc(C)c2c1C)c1ccccc1` (stereo not drawn) [Example 81, 1-(3-(7-(dimethylamino)-3,4-dimethyl-2H-pyrazolo[3,4-d]pyridazin-2-yl)-4-(3-(methylamino)-1-phenylpropoxy)phenyl)pyrrolidin-2-one], the figures for the Ki in test [1] (setting [3]) and in test [2] (setting [4]) were over 500 nM and over 5000 nM, respectively.

For the compound `CNCCC(Oc1cc(NC(C)=O)ccc1-n1nc2c(N(C)C)nnc(C)c2c1C)c1ccccc1` (stereo not drawn) [Example 82, N-(4-(7-(dimethylamino)-3,4-dimethyl-2H-pyrazolo[3,4-d]pyridazin-2-yl)-3-(3-(methylamino)-1-phenylpropoxy)phenyl)acetamide], the values for the inhibition constant Ki in test [1] (setting [3]) and in test [2] (setting [4]) were over 500 nM and 500 to 5000 nM, respectively.

Take `CNCCC(Oc1ccc(NC(C)=O)cc1-n1nc2c(N(C)C)nnc(C)c2c1C)c1ccccc1` (stereo not drawn) [Example 83, N-(3-(7-(dimethylamino)-3,4-dimethyl-2H-pyrazolo[3,4-d]pyridazin-2-yl)-4-(3-(methylamino)-1-phenylpropoxy)phenyl)acetamide]: the results for the Ki in test [1] (setting [3]) and in test [2] (setting [4]) were over 500 nM and 500 to 5000 nM, respectively.

As for `CNCCC(Oc1ccccc1-n1nc2c(N(C)C)nnc(C)c2c1C)c1cccc(NC(C)=O)c1` (stereo not drawn) [Example 84, N-(3-(1-(2-(7-(dimethylamino)-3,4-dimethyl-2H-pyrazolo[3,4-d]pyridazin-2-yl)phenoxy)-3-(methylamino)propyl)phenyl)acetamide], the inhibition constant (Ki) in test [1] (setting [3]) is over 500 nM; in test [2] (setting [4]), 500 to 5000 nM.

As for `CNCCC(Oc1cc(C#N)ccc1-n1nc2c(N(C)C)nnc(C)c2c1C)c1ccccc1` (stereo not drawn) [Example 85, 4-(7-(Dimethylamino)-3,4-dimethyl-2H-pyrazolo[3,4-d]pyridazin-2-yl)-3-(3-(methylamino)-1-phenylpropoxy)benzonitrile], the Ki in test [1] (setting [3]) was over 500 nM; in test [2] (setting [4]), over 5000 nM.

Consider `CNCCC(Oc1ccc(C#N)cc1-n1nc2c(N(C)C)nnc(C)c2c1C)c1ccccc1` (stereo not drawn) [Example 86, 3-(7-(dimethylamino)-3,4-dimethyl-2H-pyrazolo[3,4-d]pyridazin-2-yl)-4-(3-(methylamino)-1-phenylpropoxy)benzonitrile], for which the figures for the Ki in test [1] (setting [3]) and in test [2] (setting [4]) were over 500 nM and over 5000 nM, respectively.

Take `CCOc1ccc(-n2nc3c(N(C)C)nnc(C)c3c2C)c(OC(CCNC)c2ccccc2)c1` (stereo not drawn) [Example 87, 2-(4-Ethoxy-2-(3-(methylamino)-1-phenylpropoxy)phenyl)-N,N,3,4-tetramethyl-2H-pyrazolo[3,4-d]pyridazin-7-amine]: the Ki in test [1] was over 500 nM; in test [2], under 500 nM.

On to `CNCCC(Oc1ccc(OC)cc1-n1nc2c(N(C)C)nnc(C)c2c1C)c1ccccc1` (stereo not drawn) [Example 88, 2-(5-methoxy-2-(3-(methylamino)-1-phenylpropoxy)phenyl)-N,N,3,4-tetramethyl-2H-pyrazolo[3,4-d]pyridazin-7-amine], for which the inhibition constant (Ki) in test [1] (setting [3]) was over 500 nM; in test [2] (setting [4]), 500 to 5000 nM.

For the compound `CCOc1ccc(OC(CCNC)c2ccccc2)c(-n2nc3c(N(C)C)nnc(C)c3c2C)c1` (stereo not drawn) [Example 89, 2-(5-ethoxy-2-(3-(methylamino)-1-phenylpropoxy)phenyl)-N,N,3,4-tetramethyl-2H-pyrazolo[3,4-d]pyridazin-7-amine], the figures for the Ki in test [1] (setting [3]) and in test [2] (setting [4]) were over 500 nM and 500 to 5000 nM, respectively.

Turning to `CCOc1cccc(C(CCNC)Oc2ccccc2-n2nc3c(N(C)C)nnc(C)c3c2C)c1` (stereo not drawn) [Example 90, 2-(2-(1-(3-ethoxyphenyl)-3-(methylamino)propoxy)phenyl)-N,N,3,4-tetramethyl-2H-pyrazolo[3,4-d]pyridazin-7-amine], the Ki was over 500 nM in test [1] (setting [3]) and 500 to 5000 nM in test [2] (setting [4]).

`CNCCC(Oc1ccccc1-n1nc2c(N(C)C)nnc(C)c2c1C)c1cccc(C(N)=O)c1` (stereo not drawn) [Example 91, 3-(1-(2-(7-(Dimethylamino)-3,4-dimethyl-2H-pyrazolo[3,4-d]pyridazin-2-yl)phenoxy)-3-(methylamino)propyl)benzamide]: the Ki was over 500 nM in test [1] (setting [3]) and 500 to 5000 nM in test [2] (setting [4]).

For the compound `CNCCC(Oc1ccccc1-n1nc2c(N(C)C)nnc(C)c2c1C)c1ccc(C(N)=O)cc1` (stereo not drawn) [Example 92, 4-(1-(2-(7-(dimethylamino)-3,4-dimethyl-2H-pyrazolo[3,4-d]pyridazin-2-yl)phenoxy)-3-(methylamino)propyl)benzamide], the Ki in test [1] (setting [3]) is over 500 nM; in test [2] (setting [4]), 500 to 5000 nM.

Turning to `CNCCC(Oc1ccc(C(N)=O)cc1-n1nc2c(N(C)C)nnc(C)c2c1C)c1ccccc1` (stereo not drawn) [Example 93, 3-(7-(dimethylamino)-3,4-dimethyl-2H-pyrazolo[3,4-d]pyridazin-2-yl)-4-(3-(methylamino)-1-phenylpropoxy)benzamide], the results for the Ki in test [1] (setting [3]) and in test [2] (setting [4]) were over 500 nM and over 5000 nM, respectively.

`CNCCC(Oc1cc(C(N)=O)ccc1-n1nc2c(N(C)C)nnc(C)c2c1C)c1ccccc1` (stereo not drawn) [Example 94, 4-(7-(dimethylamino)-3,4-dimethyl-2H-pyrazolo[3,4-d]pyridazin-2-yl)-3-(3-(methylamino)-1-phenylpropoxy)benzamide]: the Ki was over 500 nM in test [1] (setting [3]) and over 5000 nM in test [2] (setting [4]).

As for `CNCCC(Oc1cc(C(=O)N(C)C)ccc1-n1nc2c(N(C)C)nnc(C)c2c1C)c1ccccc1` (stereo not drawn) [Example 95], the Ki in test [1] (setting [3]) is over 500 nM; in test [2] (setting [4]), 500 to 5000 nM.

For the compound `CNCCC(Oc1ccc(C(=O)N(C)C)cc1-n1nc2c(N(C)C)nnc(C)c2c1C)c1ccccc1` (stereo not drawn) [Example 96, 3-(7-(Dimethylamino)-3,4-dimethyl-2H-pyrazolo[3,4-d]pyridazin-2-yl)-N,N-dimethyl-4-(3-(methylamino)-1-phenylpropoxy)benzamide], the results for the Ki in test [1] (setting [3]) and in test [2] (setting [4]) were over 500 nM and over 5000 nM, respectively.

As for `CNCCC(Oc1ccc(O)cc1-n1nc2c(N(C)C)nnc(C)c2c1C)c1ccccc1` (stereo not drawn) [Example 97, 3-(7-(Dimethylamino)-3,4-dimethyl-2H-pyrazolo[3,4-d]pyridazin-2-yl)-4-(3-(methylamino)-1-phenylpropoxy)phenol], the figures for the Ki in test [1] (setting [3]) and in test [2] (setting [4]) were over 500 nM and 500 to 5000 nM, respectively.
